Measurements reported in publication PMC11435205, “TnP and AHR-CYP1A1 Signaling Crosstalk in an Injury-Induced Zebrafish Inflammation Model” (Pharmaceuticals, 2024).

Tests used:
CYP1 = details: cited from earlier work
CYP1A1 = target: T1, CYP1A1 (Homo sapiens, UniProt P04798); test: in vitro; details: pH 7.4, CYP1A1 enzyme activity (%), MNF 2.5 µM, positive control
T1 sequence (P04798 1-512): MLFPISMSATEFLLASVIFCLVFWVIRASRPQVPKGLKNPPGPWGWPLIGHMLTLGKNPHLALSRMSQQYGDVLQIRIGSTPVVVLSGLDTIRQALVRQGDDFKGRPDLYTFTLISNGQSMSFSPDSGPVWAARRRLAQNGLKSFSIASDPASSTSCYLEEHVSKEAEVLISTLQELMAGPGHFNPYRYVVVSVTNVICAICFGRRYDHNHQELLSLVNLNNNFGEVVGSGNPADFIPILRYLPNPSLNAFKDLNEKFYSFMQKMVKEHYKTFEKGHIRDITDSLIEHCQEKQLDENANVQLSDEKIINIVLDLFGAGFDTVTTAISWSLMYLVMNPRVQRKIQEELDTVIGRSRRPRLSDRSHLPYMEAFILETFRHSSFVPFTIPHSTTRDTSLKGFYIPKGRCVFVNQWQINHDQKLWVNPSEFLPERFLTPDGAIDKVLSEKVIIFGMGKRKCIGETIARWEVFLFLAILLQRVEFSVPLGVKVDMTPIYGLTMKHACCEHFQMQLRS
Protocol: The ethoxyresorufin deethylase (EROD) assay was performed using recombinant human CYP1A1 to determine TnP-mediated inhibition of CYP1A1 enzyme activity according to Wincent et al. [47], with minor changes. In brief, 2.5 nM CYP1A1 was pre-incubated with different concentrations of TnP in Tris-HCl buffer (0.1 M, pH 7.4) with EDTA (1 mM) at 37 °C for 3 min followed by the addition of ethoxyresorufin (0.1 μM) and NADPH (0.4 mM). Formation of resorufin was quantified in triplicates using a Tecan Infinite F200 multiwell plate reader (Tecan Group Ltd., Männedorf, Switzerland) with the excitation/emission wavelengths of 530/590 nm every 4 s for 2 min. The enzyme activity was determined by comparing the rate of resorufin formation compared to the vehicle control DMSO. The TnP concentration causing 50% inhibition of EROD activity (IC50) was estimated by nonlinear dose–response inhibition analysis using GraphPad Prism 9.1 (GraphPad Software, San Diego, CA, USA).
All the concentration were read at least in triplicate. Dimethyl sulfoxide – DMSO was tested
as negative control, and 3’-methoxy-4’-nitroflavone – MNF as positive control.

[1] = tested on: (DOX)-induced cardiotoxicity; details: zebrafish; cited from earlier work
Excerpt: In addition to its implication in the resolution of inflammation and tissue injury, Asnani et al. recently concluded that inhibition of CYP1 was protective of (DOX)-induced cardiotoxicity.

Q: For `O=Cc1c2c(cc3c1=Nc1ccccc1-3)=Nc1ccccc1-2` [FICZ], which clearance dependence (CYP1) is on record?
A: clearance is dependent on CYP1

Q: With `COc1cc(-c2cc(=O)c3ccccc3o2)ccc1[N+](=O)[O-]` [MNF] as the compound, how does the activity (CYP1A1; replicate I) read?
A: 1.54%

Q: What about the activity (CYP1A1; replicate II) of the same compound?
A: 1.54%

Q: What about the activity (CYP1A1; replicate III) of the same compound?
A: 1.71%

Q: And the activity (CYP1A1; replicate IV)?
A: 1.67%

Q: And the activity (CYP1A1; replicate IX)?
A: 0.51%

Q: What about the activity (CYP1A1; replicate V) of the same compound?
A: 1.31%

Q: And the activity (CYP1A1; replicate VI)?
A: 1.7%

Q: And the activity (CYP1A1; replicate VII)?
A: 0.51%

Q: What about the activity (CYP1A1; replicate VIII) of the same compound?
A: 0.51%

Q: For `COc1c2ccoc2cc2oc(C)cc(=O)c12` [visnagin], which “effect on DOX-induced cardiotoxicity” value [1] is on record?
A: cardioprotection
